The values that follow come from paper PMC8308786, “Discovery and Characterization of a Novel MASTL Inhibitor MKI-2 Targeting MASTL-PP2A in Breast Cancer Cells and Oocytes” (Pharmaceuticals, 2021).

The experiment addresses T1, MASTL (Homo sapiens, UniProt Q96GX5).
T1 construct: recombinant GST-tagged-MASTL
T1 sequence (Q96GX5 1-879): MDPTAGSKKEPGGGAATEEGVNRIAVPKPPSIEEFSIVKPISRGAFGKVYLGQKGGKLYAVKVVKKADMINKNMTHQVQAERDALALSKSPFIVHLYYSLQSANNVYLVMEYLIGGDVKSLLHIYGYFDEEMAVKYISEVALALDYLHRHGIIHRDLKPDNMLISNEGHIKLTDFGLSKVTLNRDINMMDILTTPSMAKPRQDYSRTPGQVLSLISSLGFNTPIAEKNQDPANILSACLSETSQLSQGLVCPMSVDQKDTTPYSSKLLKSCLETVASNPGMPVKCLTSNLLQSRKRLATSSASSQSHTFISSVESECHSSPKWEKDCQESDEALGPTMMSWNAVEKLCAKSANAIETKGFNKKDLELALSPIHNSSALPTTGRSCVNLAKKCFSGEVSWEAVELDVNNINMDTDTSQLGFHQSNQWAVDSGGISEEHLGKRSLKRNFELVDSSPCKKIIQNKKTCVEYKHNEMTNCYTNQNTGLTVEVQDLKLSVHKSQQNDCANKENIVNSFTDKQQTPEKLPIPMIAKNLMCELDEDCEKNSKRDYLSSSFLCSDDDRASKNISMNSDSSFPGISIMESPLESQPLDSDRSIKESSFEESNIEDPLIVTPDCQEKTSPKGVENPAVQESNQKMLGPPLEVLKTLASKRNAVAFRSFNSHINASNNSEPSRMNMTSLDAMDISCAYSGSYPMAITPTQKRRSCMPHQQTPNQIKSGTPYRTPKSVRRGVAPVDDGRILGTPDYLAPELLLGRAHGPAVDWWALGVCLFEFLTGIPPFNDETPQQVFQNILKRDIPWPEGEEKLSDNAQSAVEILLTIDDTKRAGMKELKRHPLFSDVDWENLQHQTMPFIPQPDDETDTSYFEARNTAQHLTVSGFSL
Briefly: in vitro kinase assay with recombinant GST-MASTL and His-ENSA substrate; also HTRF KinEASE and ADP-Glo. It counts as biochemical.

For orientation: IC50 means the concentration that inhibits the measured activity by half.

Turning to `N#CCc1ccc(Nc2nc(Nc3cc(C4CC4)[nH]n3)c3ccccc3n2)cc1` [#248, 2-(4-((4-((5-cyclopropyl-1H-pyrazol-3-yl)amino)quinazolin-2-yl)amino)phenyl)acetonitrile], the IC50 is 37.4 nM.
